Article PMC6780063 (Marine Drugs, 2019)
Residues, ends and D or L forms follow the SMILES beside them.

Target: α1β1γδ nAChR (Homo sapiens, UniProt P02708+P07510+P11230+Q07001)
Experiment: cell-based
Type: cell-based

Sequence of α1β1γδ nAChR (P02708 21-457 limits assumed): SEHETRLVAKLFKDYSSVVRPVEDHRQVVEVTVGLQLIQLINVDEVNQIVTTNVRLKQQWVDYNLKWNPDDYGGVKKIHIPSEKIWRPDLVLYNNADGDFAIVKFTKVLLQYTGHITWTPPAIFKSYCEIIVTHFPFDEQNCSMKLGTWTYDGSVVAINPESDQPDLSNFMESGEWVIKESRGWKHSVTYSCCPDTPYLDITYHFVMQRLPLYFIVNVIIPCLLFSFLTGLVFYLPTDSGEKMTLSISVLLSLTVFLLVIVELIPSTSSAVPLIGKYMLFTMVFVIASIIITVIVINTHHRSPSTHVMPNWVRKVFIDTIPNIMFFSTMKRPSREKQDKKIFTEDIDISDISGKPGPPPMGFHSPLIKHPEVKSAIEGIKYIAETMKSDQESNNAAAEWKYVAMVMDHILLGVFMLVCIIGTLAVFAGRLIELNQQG
Sequence of α1β1γδ nAChR (P11230 24-501 partner limits assumed): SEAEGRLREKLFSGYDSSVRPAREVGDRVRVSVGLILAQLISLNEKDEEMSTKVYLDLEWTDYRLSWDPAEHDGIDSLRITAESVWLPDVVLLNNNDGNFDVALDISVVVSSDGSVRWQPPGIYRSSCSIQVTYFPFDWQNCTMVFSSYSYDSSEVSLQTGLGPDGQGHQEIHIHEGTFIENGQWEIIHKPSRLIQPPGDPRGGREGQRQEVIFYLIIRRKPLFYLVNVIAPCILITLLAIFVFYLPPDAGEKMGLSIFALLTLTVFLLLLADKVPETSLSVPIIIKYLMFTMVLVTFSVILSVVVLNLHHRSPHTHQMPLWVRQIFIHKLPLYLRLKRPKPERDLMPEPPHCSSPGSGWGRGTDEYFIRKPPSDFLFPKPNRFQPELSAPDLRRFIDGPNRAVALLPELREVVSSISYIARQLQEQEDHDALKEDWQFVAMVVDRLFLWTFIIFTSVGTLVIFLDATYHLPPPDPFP
Sequence of α1β1γδ nAChR (P07510 23-517 limits assumed): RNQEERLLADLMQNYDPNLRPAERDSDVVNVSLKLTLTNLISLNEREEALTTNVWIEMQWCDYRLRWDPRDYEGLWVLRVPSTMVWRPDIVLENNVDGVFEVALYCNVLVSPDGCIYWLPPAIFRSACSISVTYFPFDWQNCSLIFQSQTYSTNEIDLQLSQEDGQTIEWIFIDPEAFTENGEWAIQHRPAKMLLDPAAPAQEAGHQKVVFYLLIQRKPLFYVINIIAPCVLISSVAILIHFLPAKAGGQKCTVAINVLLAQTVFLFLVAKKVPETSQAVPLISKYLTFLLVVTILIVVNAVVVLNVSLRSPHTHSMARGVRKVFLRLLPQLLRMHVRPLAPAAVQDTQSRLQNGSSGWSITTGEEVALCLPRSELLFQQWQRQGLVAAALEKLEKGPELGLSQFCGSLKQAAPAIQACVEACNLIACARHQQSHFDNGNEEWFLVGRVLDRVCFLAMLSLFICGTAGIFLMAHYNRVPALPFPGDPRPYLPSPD
Sequence of α1β1γδ nAChR (Q07001 22-517 limits assumed): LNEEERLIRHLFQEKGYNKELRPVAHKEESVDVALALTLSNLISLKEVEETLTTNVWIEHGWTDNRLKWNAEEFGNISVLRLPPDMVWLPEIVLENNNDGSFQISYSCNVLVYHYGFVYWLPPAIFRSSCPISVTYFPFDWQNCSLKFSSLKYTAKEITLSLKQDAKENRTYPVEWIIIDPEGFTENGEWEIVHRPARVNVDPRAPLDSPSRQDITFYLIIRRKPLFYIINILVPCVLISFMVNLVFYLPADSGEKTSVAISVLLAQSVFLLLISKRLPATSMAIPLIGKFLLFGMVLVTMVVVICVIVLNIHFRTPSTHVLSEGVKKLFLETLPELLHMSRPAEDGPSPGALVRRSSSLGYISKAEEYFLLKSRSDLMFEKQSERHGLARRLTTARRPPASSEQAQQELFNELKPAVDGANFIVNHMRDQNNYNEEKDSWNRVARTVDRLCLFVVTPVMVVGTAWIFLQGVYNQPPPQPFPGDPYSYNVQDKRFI

Compound: CSCC[C@@H]1NC(=O)[C@@H]2CSSC[C@H](NC(=O)[C@H](CCSC)NC(=O)[C@@H](N)CC(=O)O)C(=O)N[C@@H](CSSC[C@@H](C(N)=O)NC(=O)[C@H](CC(N)=O)NC(=O)[C@H](Cc3ccccc3)NC(=O)[C@H](Cc3c[nH]cn3)NC(=O)[C@H](CC(N)=O)NC1=O)C(=O)N[C@@H](Cc1c[nH]cn1)C(=O)N1CCC[C@H]1C(=O)N[C@@H](C)C(=O)N2 [MilIA] (HELM PEPTIDE1{D.M.C.C.H.P.A.C.M.N.H.F.N.C.[am]}$PEPTIDE1,PEPTIDE1,3:R3-8:R3|PEPTIDE1,PEPTIDE1,4:R3-14:R3$$$V2.0)
- inhibition of the ACh-evoked current amplitude, α1β1γδ: 20%
- IC50 (SEM): 13.1 µM
